Assay results: paper PMC4312132, “Phenylalanine in the Pore of the Erwinia Ligand-Gated Ion Channel Modulates Picrotoxinin Potency but Not Receptor Function” (Biochemistry, 2014)
Read-outs that look alike come from different tables or passages of the source.

Tests used:
Assay type in all cases: cell-based, Erwinia chrysanthemii
F16′Y ELIC = molecular target: T1, F16′Y ELIC (Dickeya chrysanthemi, UniProt P0C7B7, F246Y); assay: GABA activation of F16′Y ELIC, two-electrode voltage clamp in Xenopus oocytes
T1 construct: expressed in transfected cells; host or cells: Xenopus laevis oocytes (cRNA injection)

T6′S ELIC [1] = molecular target: T2, T6′S ELIC (Dickeya chrysanthemi, UniProt P0C7B7, T236S); assay: GABA activation of T6′S ELIC, two-electrode voltage clamp in Xenopus oocytes
T2 construct: expressed in transfected cells; host or cells: Xenopus laevis oocytes (cRNA injection)

F16′Q ELIC = molecular target: T3, F16′Q ELIC (Dickeya chrysanthemi, UniProt P0C7B7, F246Q); assay: GABA activation of F16′Q ELIC, two-electrode voltage clamp in Xenopus oocytes
T3 construct: expressed in transfected cells; host or cells: Xenopus laevis oocytes (cRNA injection)

F16′A ELIC [2] = molecular target: T4, F16′A ELIC (Dickeya chrysanthemi, UniProt P0C7B7, F246A); assay: GABA activation of F16′A ELIC, two-electrode voltage clamp in Xenopus oocytes
T4 construct: expressed in transfected cells; host or cells: Xenopus laevis oocytes (cRNA injection)
Procedure: (§1) Xenopus laevis oocyte-positive females were purchased from NASCO (Fort Atkinson, WI) and maintained according to standard methods. Harvested stage V and VI Xenopus oocytes were washed in four changes of Ca^2+-free ND96 [96 mM NaCl, 2 mM KCl, 1 mM MgCl2, and 5 mM HEPES (pH 7.5)], defolliculated in 1.5 mg mL^–1 collagenase type 1A for approximately 2 h, washed again in four changes of ND96, and stored in ND96 at 16 °C containing 2.5 mM sodium pyruvate, […] gentamycin, and 0.7 mM theophylline.
(§2) ELIC (GenBank accession number ADN00343.1) was kindly provided by C. Ulens. For expression in Xenopus oocytes, it was cloned into pGEMHE with the signal sequence of the human α7 nACh receptor. […] Stage V and VI oocytes were injected with 20 ng of cRNA, and currents were recorded 1–3 days postinjection.
(§3) Using two-electrode voltage clamp, Xenopus oocytes were clamped at −60 mV using an OC-725 amplifier (Warner Instruments, Hamden, CT), Digidata 1322A, and the Strathclyde Electrophysiology Software Package (Department of Physiology and Pharmacology, University of Strathclyde, Glasgow, U.K.). Currents were recorded at 5 kHz and filtered at a frequency of 1 kHz. […] Inhibition by test compounds was measured at the GABA EC50 for each mutant. […]

F16′L ELIC = molecular target: T5, F16′L ELIC (Dickeya chrysanthemi, UniProt P0C7B7, F246L); assay: GABA activation of F16′L ELIC, two-electrode voltage clamp in Xenopus oocytes
T5 construct: expressed in transfected cells; host or cells: Xenopus laevis oocytes (cRNA injection)
Procedure: as §1, §2, §3

F16′W ELIC [3] = molecular target: T6, F16′W ELIC (Dickeya chrysanthemi, UniProt P0C7B7, F246W); assay: GABA activation of F16′W ELIC, two-electrode voltage clamp in Xenopus oocytes
T6 construct: expressed in transfected cells; host or cells: Xenopus laevis oocytes (cRNA injection)

F16′E ELIC [4] = molecular target: T7, F16′E ELIC (Dickeya chrysanthemi, UniProt P0C7B7, F246E); assay: GABA activation of F16′E ELIC, two-electrode voltage clamp in Xenopus oocytes
T7 construct: expressed in transfected cells; host or cells: Xenopus laevis oocytes (cRNA injection)
Procedure: as §1, §2, §3

T6′A ELIC [5] = molecular target: T8, T6′A ELIC (Dickeya chrysanthemi, UniProt P0C7B7, T236A); assay: GABA activation of T6′A ELIC, two-electrode voltage clamp in Xenopus oocytes
T8 construct: expressed in transfected cells; host or cells: Xenopus laevis oocytes (cRNA injection)

F16′T ELIC [6] = molecular target: T9, F16′T ELIC (Dickeya chrysanthemi, UniProt P0C7B7, F246T); assay: GABA activation of F16′T ELIC, two-electrode voltage clamp in Xenopus oocytes
T9 construct: expressed in transfected cells; host or cells: Xenopus laevis oocytes (cRNA injection)

F16′D ELIC [7] = molecular target: T10, F16′D ELIC (Dickeya chrysanthemi, UniProt P0C7B7, F246D); assay: GABA activation of F16′D ELIC, two-electrode voltage clamp in Xenopus oocytes
T10 construct: expressed in transfected cells; host or cells: Xenopus laevis oocytes (cRNA injection)

F16′S ELIC [8] = molecular target: T11, F16′S ELIC (Dickeya chrysanthemi, UniProt P0C7B7, F246S); assay: GABA activation of F16′S ELIC, two-electrode voltage clamp in Xenopus oocytes
T11 construct: expressed in transfected cells; host or cells: Xenopus laevis oocytes (cRNA injection)

Q2′N ELIC [9] = molecular target: T12, Q2′N ELIC (Dickeya chrysanthemi, UniProt P0C7B7, Q232N); assay: GABA activation of Q2′N ELIC, two-electrode voltage clamp in Xenopus oocytes
T12 construct: expressed in transfected cells; host or cells: Xenopus laevis oocytes (cRNA injection)

F16′S/T6′S ELIC = molecular target: T13, F16′S/T6′S ELIC (Dickeya chrysanthemi, UniProt P0C7B7, F246S/T236S); assay: GABA activation of F16′S/T6′S ELIC, two-electrode voltage clamp in Xenopus oocytes
T13 construct: expressed in transfected cells; host or cells: Xenopus laevis oocytes (cRNA injection)

F16′E ELIC [10] = molecular target: T7, F16′E ELIC; assay: Inhibition of GABA-elicited currents of F16′E ELIC in Xenopus oocytes
F16′A ELIC [11] = molecular target: T4, F16′A ELIC; assay: Inhibition of GABA-elicited currents of F16′A ELIC in Xenopus oocytes; details: inhibition measured at the GABA EC50
T6′A ELIC [12] = molecular target: T8, T6′A ELIC; assay: Inhibition of GABA-elicited currents of T6′A ELIC in Xenopus oocytes
Procedure: as §1, §2, §3

Q2′N ELIC [13] = molecular target: T12, Q2′N ELIC; assay: Inhibition of GABA-elicited currents of Q2′N ELIC in Xenopus oocytes
T6′S/F16′S ELIC = molecular target: T14, T6′S/F16′S ELIC (Dickeya chrysanthemi, UniProt P0C7B7, F246S/T236S); assay: Inhibition of GABA-elicited currents of T6′S/F16′S ELIC in Xenopus oocytes; details: inhibition measured at the GABA EC50
T14 construct: expressed in transfected cells; host or cells: Xenopus laevis oocytes injected with cRNA transcribed from pGEMHE
T14 sequence (P0C7B7 1-321 T236S/F246S): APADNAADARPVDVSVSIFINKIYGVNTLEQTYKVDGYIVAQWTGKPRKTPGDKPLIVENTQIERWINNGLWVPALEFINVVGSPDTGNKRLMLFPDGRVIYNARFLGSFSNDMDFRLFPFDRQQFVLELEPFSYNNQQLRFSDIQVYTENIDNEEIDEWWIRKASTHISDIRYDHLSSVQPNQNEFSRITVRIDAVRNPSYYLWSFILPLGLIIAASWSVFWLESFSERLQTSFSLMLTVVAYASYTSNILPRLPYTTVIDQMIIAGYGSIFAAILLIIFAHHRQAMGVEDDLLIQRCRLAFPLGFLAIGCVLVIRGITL

F16′T ELIC [14] = molecular target: T9, F16′T ELIC; assay: Inhibition of GABA-elicited currents of F16′T ELIC in Xenopus oocytes
F16′W ELIC [15] = molecular target: T6, F16′W ELIC; assay: Inhibition of GABA-elicited currents of F16′W ELIC in Xenopus oocytes
F16′S ELIC [16] = molecular target: T11, F16′S ELIC; assay: Inhibition of GABA-elicited currents of F16′S ELIC in Xenopus oocytes
T6′S ELIC [17] = molecular target: T2, T6′S ELIC; assay: Inhibition of GABA-elicited currents of T6′S ELIC in Xenopus oocytes
F16′D ELIC [18] = molecular target: T10, F16′D ELIC; assay: Inhibition of GABA-elicited currents of F16′D ELIC in Xenopus oocytes
Procedure: as §1, §2, §3

NCCCC(=O)O [GABA, γ-aminobutyric acid]
EC50 (F16′Y ELIC): 7500 µM
EC50 (T6′S ELIC [1]): 1780 µM
EC50 (F16′Q ELIC): 7760 µM
EC50 (F16′A ELIC [2]): 4900 µM
EC50 (F16′L ELIC; GABA EC50, F16′L ELIC): 51000 µM
EC50 (F16′L ELIC; GABA pEC50, F16′L ELIC): 51300 µM
EC50 (F16′W ELIC [3]): 2290 µM
EC50 (F16′E ELIC [4]; GABA EC50, F16′E ELIC): 26000 µM
EC50 (F16′E ELIC [4]; GABA pEC50, F16′E ELIC): 25700 µM
EC50 (T6′A ELIC [5]; GABA EC50, T6′A ELIC): 800 µM
EC50 (T6′A ELIC [5]; GABA pEC50, T6′A ELIC): 851 µM
EC50 (F16′T ELIC [6]; GABA EC50, F16′T ELIC): 11000 µM
EC50 (F16′T ELIC [6]; GABA pEC50, F16′T ELIC): 11500 µM
EC50 (F16′D ELIC [7]): 2090 µM
EC50 (F16′S ELIC [8]): 7100 µM
EC50 (Q2′N ELIC [9]): 1820 µM
EC50 (F16′S/T6′S ELIC): 6400 µM

C=C(C)[C@@H]1[C@H]2OC(=O)[C@@H]1[C@]1(O)C[C@H]3O[C@]34C(=O)O[C@H]2[C@]14C [PXN, Picrotoxinin]
IC50 (F16′E ELIC [10]): 26.9 µM
IC50 (F16′A ELIC [11]; IC50, F16′A ELIC): 16 µM
IC50 (F16′A ELIC [11]; pIC50, F16′A ELIC): 16.6 µM
IC50 (T6′A ELIC [12]): 95 µM
IC50 (Q2′N ELIC [13]): 44 µM
IC50 (T6′S/F16′S ELIC; IC50, T6′S/F16′S ELIC): 44 µM
IC50 (F16′T ELIC [14]): 7.2 µM
IC50 (F16′W ELIC [15]): 52 µM
IC50 (F16′S ELIC [16]): 4.5 µM
IC50 (T6′S ELIC [17]): 68 µM
IC50 (F16′D ELIC [18]): 9.4 µM

CCCC(C(=O)OCCN(CC)CC)(c1ccccc1)c1ccccc1 [proadifen]
IC50 (T6′S/F16′S ELIC; T6′S/F16′S ELIC, read-out: IC50): 0.9 µM
IC50 (T6′S/F16′S ELIC; T6′S/F16′S ELIC, read-out: pIC50 (converted)): 0.933 µM
IC50 (F16′S ELIC [16]; F16′S ELIC, inhibition measured at the GABA EC50, read-out: IC50): 5.1 µM
IC50 (T6′S ELIC [17]; T6′S ELIC, inhibition measured at the GABA EC50, read-out: pIC50 (converted)): 2.57 µM
